Data taken from paper PMC7497443, “Imaging CXCR4 Expression with Iodinated and Brominated Cyclam Derivatives” (Molecular Imaging and Biology, 2020).
Entries after “also recorded” stand apart in the source; their conditions may differ. Where two headings read alike, the source gives them in different places.

How the values were obtained:
HIV = settings: cited from earlier work
CXCR4 = target: T1, CXCR4 (Homo sapiens, UniProt P61073); test: Competitive binding assay with U87-CXCR4 cells and 67Ga-Pentixafor; settings: U87-CXCR4 cells, 67Ga-Pentixafor 4.0 nM, 37 °C, 2 h, triplicate; read-out: IC50 affinity
T1 construct: host or cells: U87 glioma cells transduced with CXCR4 (U87-CXCR4)
T1 sequence (P61073 whole entry): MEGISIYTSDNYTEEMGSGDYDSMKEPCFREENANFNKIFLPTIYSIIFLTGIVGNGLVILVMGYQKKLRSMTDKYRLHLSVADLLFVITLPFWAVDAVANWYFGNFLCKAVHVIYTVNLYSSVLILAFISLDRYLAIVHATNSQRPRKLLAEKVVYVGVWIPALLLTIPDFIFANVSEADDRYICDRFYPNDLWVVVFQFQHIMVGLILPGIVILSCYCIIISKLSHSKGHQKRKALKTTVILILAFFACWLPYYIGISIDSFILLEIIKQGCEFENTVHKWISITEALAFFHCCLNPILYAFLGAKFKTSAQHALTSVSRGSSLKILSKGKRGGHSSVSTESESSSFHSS
Experimental: In order to determine the affinity of the halogenated cyclam derivatives, competitive binding studies were performed with U87-CXCR4 cells using ^67Ga-Pentixafor (CXCR4 receptor ligand). Briefly, triplicate samples containing 0.5 × 10^6 cells pre-seeded in 6-well plate, about 1.8 kBq of ^67Ga-Pentixafor (4.0 nM) and 0.001–1000 nM of the tested ligands (total volume 1.0 ml) were incubated at 37 °C for 2 h. After incubation, the cells were washed with 2 × 1 ml of ice-cold tris-buffered saline (pH 7.4) and then collected for measurement with a WIZARD 1480 gamma counter (PerkinElmer, Waltham, MA). The IC50 values were estimated using a least squares fitting routine (GraphPad Prism 6, San Diego, CA, USA).
Competitive binding assays were performed using U87-CXCR4 cells (expressing high levels of CXCR4) and ^67Ga-Pentixafor [31, 32] as a radioligand.

U87-CXCR4 s.c. tumors = type: in vivo; settings: for accumulation in U87-CXCR4 s.c. tumors (in words): following i.v. injection; for in vivo de-halogenation / stability on PET imaging: thyroid radioactivity on PET images
Experimental: (§1) All animal experiments were approved by the Institutional Animal Care and Utilization Committee of MSKCC. Eight human PCNSL xenograft models established at MSK (CG) were available for study. Female Athymic Nude Foxn (6–8 weeks old; ENVIGO) was used for subcutaneous implantation. Cancer cells, including U87-CXCR4, U87-WT, H69, and H82 (5 × 10^6 cells suspended in […] of cell culture medium/Matrigel [BD Bioscience] [v/v 5 1/1]), were inoculated to the shoulder/flank area of the animal. Twenty to 30 days after the inoculation, imaging and tissue sampling were performed when the tumor sizes were between 100 and 350 mm^3. For orthotopic models, U87-CXCR4 cells (1 × 10^5 cells suspended in 10 μl of cell culture medium) in 30-gauge needle were injected into the right frontal cortex (stereotactic coordinates: bregma + 1.7 mm (anterior), lateral − 0.5 mm (right), and at a depth of 2.5 mm). Individuals performing implantation and stereotactic injections were blinded to the experimental design.
(§2) Animals were administrated 3.7–11.1 MBq of ^76Br- or ^124I-labeled ligands via tail vein or intraspinal injection under 2 % isoflurane anesthesia. At 1 h and 24 h after injection, PET/CT imaging (or PET imaging) was performed with an Inveon PET/CT system. The tumors were centered in the field of view, and the PET acquisition time was 10 min (or longer if needed, until 50 million events are recorded). The image data were normalized to correct for non-uniformity of response of the PET camera, dead-time count losses, positron branching ratio, and physical decay to the time of injection, but no attenuation, scatter, or partial-volume averaging correction was applied. The calibration factor of both PET scanner was measured with a mouse-size phantom composed of a cylinder uniformly filled with an aqueous solution of ^18F of known activity concentration. The acquired PET/CT (or PET) images were analyzed using Inveon Research Workplace v4.2 software (or ASIPro software). Region of interest (ROI) analysis of the acquired images was performed using ASIPro software (Siemens, Malvern, PA, USA), and the observed maximum pixel value (%ID/cc) was utilized to diminish partial volume effects of tumor. The sequential radioactivity measurements (% injected dose/cc) were plotted vs. time of acquisition.
The imaging and uptake of 6 different radiolabeled cyclam derivatives were studied in subcutaneous tumor-bearing animals (animals bearing either 2 glioma or 2 glioma plus 2 lung cancer tumors) (Fig. 4). […] Radioactivity continued to increase in the U87-CXCR4 tumors but was washed out from the U87 wt (non-CXCR4-exressing) control tumors, over 60 min. […] Biodistribution studies confirmed the imaging studies. Comparing three radiolabeled cyclam derivatives, ^76Br-HZ270-1 was accumulated most avidly by U87-CXCR4 tumors and had the lowest overall systemic organ levels at 24 h post i.v. injection (Table 3). Brain radioactivity was lowest of all organs sampled. Based on these studies, ^76Br-HZ270-1 was selected for imaging intracranial CXCR4-expressing tumors.

[1] = test system: H69 and H82 lung cancer cells; test: Uptake of radiohalogenated cyclam derivatives in lung cancer cells; type: cell-based, human; settings: 2.0 h incubation at 37 °C
Experimental: (§3) Glioma (U87-CXCR4 and U87-WT) and lung cancer (H82 and H69) cell lines with different level of CXCR4 expression were utilized for cell uptakes of all synthesized six radiotracers. Each cell line (0.25 × 10^6 per well) was seeded into 6-well plates, and on the next day, triplicate samples containing approximately 1.85 kBq of *Br or *I-labeled ligand were added and kept incubation at 37 °C for 2.0 h. After washing twice with PBS (4 °C) on the ice-bed, the cells were harvested for measurement with the gamma counter.
(§4) The uptake of 6 different radiolabeled cyclam derivatives was studied in 4 glioma and lung cancer cell lines (Fig. 2). The cell lines expressed both “high” (U87-CXCR4 and H69) and “low” (U87-WT and H82) levels of CXCR4, which were confirmed with IHC staining of CXCR4. […] These promising results from in vitro studies supported proceeding to in vivo PET imaging of CXCR4 expression in tumor-bearing animal models, using the newly developed radiolabeled cyclam derivatives.

[2] = test system: U87-CXCR4, U87-WT, H69 and H82 s.c. tumors; test: Biodistribution in s.c. tumor-bearing animals 24 h after i.v. injection; type: in vivo, mice; settings: n = 3
Experimental: as §1, with “design. […]” for “design.”
After the last PET imaging time point, the animals were euthanized for tissue dissection. […] The total injected radioactivity per animal was determined from the measured radioactivity in an aliquot of the injectate. Data were expressed as percent of injected dose per gram of tissue (%ID/g).

[3] = test system: intracranial U87-CXCR4 tumors; test: PET imaging of intracranial U87-CXCR4 xenografts; type: in vivo, mice; settings: i.v. injection
Experimental: All animal experiments were approved by the Institutional Animal Care and Utilization Committee of MSKCC. Eight human PCNSL xenograft models established at MSK (CG) were available for study. Female Athymic Nude Foxn (6–8 weeks old; ENVIGO) was used for subcutaneous implantation. Cancer cells, including U87-CXCR4, U87-WT, H69, and H82 (5 × 10^6 cells suspended in […] of cell culture medium/Matrigel [BD Bioscience] [v/v 5 1/1]), were inoculated to the shoulder/flank area of the animal. Twenty to 30 days after the inoculation, imaging and tissue sampling were performed when the tumor sizes were between 100 and 350 mm^3. […]
Animals were administrated 3.7–11.1 MBq of ^76Br- or ^124I-labeled ligands via tail vein or intraspinal injection under 2 % isoflurane anesthesia. […] The tumors were centered in the field of view, and the PET acquisition time was 10 min (or longer if needed, until 50 million events are recorded). […] The calibration factor of both PET scanner was measured with a mouse-size phantom composed of a cylinder uniformly filled with an aqueous solution of ^18F of known activity concentration. The acquired PET/CT (or PET) images were analyzed using Inveon Research Workplace v4.2 software (or ASIPro software). […] The sequential radioactivity measurements (% injected dose/cc) were plotted vs. time of acquisition. […]

[4] = test system: intracranial PCNSL-15 CXCR4-expressing tumors; test: PET imaging and autoradiography of intracranial PCNSL-15 tumors; type: in vivo, mice
Experimental: as §2, with “acquisition. […]” for “acquisition.”

[5] = test system: U87-CXCR4 and U87-WT glioma cells; test: Uptake of radiohalogenated cyclam derivatives in glioma cells; type: cell-based, human; settings: 2.0 h incubation at 37 °C
Experimental: as §3, §4

c1cc(CN2CCCNCCNCCCNCC2)ccc1CN1CCCNCCNCCCNCC1 [AMD3100]
inhibited HIV infection, concentration range (HIV): 1 to 10 nM

c1ccc(CNCc2ccc(CN3CCCNCCNCCCNCC3)cc2)nc1 [AMD3465, reference compound]
IC50 (CXCR4): 15 ± 5.8 nM

Brc1cc(CN2CCCNCCNCCCNCC2)ccc1CN1CCCNCCNCCCNCC1 [HZ261]
IC50 (CXCR4): 9.47 ± 2.87 nM

Ic1cc(CN2CCCNCCNCCCNCC2)ccc1CN1CCCNCCNCCCNCC1 [HZ262]
IC50 (CXCR4): 15.9 ± 0.4 nM

[76Br]c1cc(CNCc2ccccn2)ccc1CN1CCCNCCNCCCNCC1 [^76Br-HZ270-1]
accumulation in U87-CXCR4 s.c. tumors (in words) (U87-CXCR4 s.c. tumors): accumulated highest | H69/H82 uptake ratio [1]: 3.93 ± 0.74 | radiotracer accumulation in H69 vs H82 cells (in words) [1]: highest | Biodistribution, Blood [2]: 0.59 ± 0.12 %ID/g | Biodistribution, Bone [2]: 2.9 ± 0.5 %ID/g | Biodistribution, Brain [2]: 0.14 ± 0.04 %ID/g | Biodistribution, Heart [2]: 1.7 ± 0.3 %ID/g | Biodistribution, Kidneys [2]: 41.3 ± 24.1 %ID/g | Biodistribution, Liver [2]: 7.6 ± 1.3 %ID/g | Biodistribution, Spleen [2]: 2.1 ± 0.8 %ID/g | Biodistribution, U87 CXCR4 tumor [2]: 9.5 ± 1.3 %ID/g | Biodistribution, U87 WT tumor [2]: 1.6 ± 0.7 %ID/g | PET imaging of CXCR4 expression in intracranial U87-CXCR4 tumors [3]: unsuccessful; also recorded: Very low levels of radioactivity were visualized | localization of radioactivity after spinal-CSF injection ([4]; autoradiography with CXCR4 IHC and H&E, PET 1 and 24 h post injection): not localized to CXCR4-expressing tumor | PET imaging of CXCR4 expression in intracranial PCNSL #15 tumors ([4]; i.v. or spinal-CSF injection): unsuccessful | U87-CXCR4/U87-wt uptake ratio [5]: 2.96 ± 0.67 | radiotracer accumulation in U87-CXCR4 vs U87-WT cells (in words) [5]: highest

[76Br]c1cc(CN2CCCNCCNCCCNCC2)ccc1CNCc1ccccn1 [^76Br-HZ270-2]
Biodistribution, Blood [2]: 1.6 ± 0.5 %ID/g | Biodistribution, Bone [2]: 1.9 ± 0.6 %ID/g | Biodistribution, Brain [2]: 0.53 ± 0.01 %ID/g | Biodistribution, Heart [2]: 2.3 ± 0.4 %ID/g | Biodistribution, Kidneys [2]: 53.7 ± 12.6 %ID/g | Biodistribution, Liver [2]: 15.3 ± 3.5 %ID/g | Biodistribution, Spleen [2]: 2.5 ± 0.2 %ID/g | Biodistribution, U87 CXCR4 tumor [2]: 4.8 ± 1.6 %ID/g | Biodistribution, U87 WT tumor [2]: 1.5 ± 0.2 %ID/g

[124I]c1cc(CN2CCCNCCNCCCNCC2)ccc1CN1CCCNCCNCCCNCC1 [^124I-HZ262]
in vivo de-halogenation / stability on PET imaging (U87-CXCR4 s.c. tumors): greater in vivo stability | in vivo de-halogenation / stability on PET imaging (U87-CXCR4 s.c. tumors; listed as 124I-AMD3100): no in vivo de-iodination

[124I]c1cc(CNCc2ccccn2)ccc1CN1CCCNCCNCCCNCC1 [^124I-HZ271-1]
in vivo de-halogenation / stability on PET imaging (U87-CXCR4 s.c. tumors): significant decomposition in vivo | Biodistribution, Blood [2]: 1.5 ± .05 %ID/g | Biodistribution, Bone [2]: 0.99 ± 0.33 %ID/g | Biodistribution, Brain [2]: 0.07 ± 0.04 %ID/g | Biodistribution, H69 tumor [2]: 2.3 ± 0.2 %ID/g | Biodistribution, H82 tumor [2]: 1.1 ± 1.0 %ID/g | Biodistribution, Heart [2]: 2.0 ± 0.4 %ID/g | Biodistribution, Kidneys [2]: 45.0 ± 5.7 %ID/g | Biodistribution, Liver [2]: 30 ± 23 %ID/g | Biodistribution, Lungs [2]: 2.3 ± 1.4 %ID/g | Biodistribution, Spleen [2]: 1.3 ± 0.7 %ID/g | Biodistribution, U87 CXCR4 tumor [2]: 2.0 ± 0.3 %ID/g | Biodistribution, U87 WT tumor [2]: 0.96 ± 0.21 %ID/g

[131I]c1cc(CN2CCCNCCNCCCNCC2)ccc1CN1CCCNCCNCCCNCC1 [^131I-HZ262]
accumulation in U87-CXCR4 s.c. tumors (in words) (U87-CXCR4 s.c. tumors): accumulated highest | H69/H82 uptake ratio [1]: 3.81 ± 0.40 | radiotracer accumulation in H69 vs H82 cells (in words) [1]: highest | U87-CXCR4/U87-wt uptake ratio [5]: 3.19 ± 1.02 | radiotracer accumulation in U87-CXCR4 vs U87-WT cells (in words) [5]: highest
